Seven molecules from ChEMBL document CHEMBL1201862, “PubChem BioAssay data set” (2004) can be followed below.

Among the test systems are 786-0; ACHN; BT-549; CCRF-CEM; HCT-116; HCT-15; HOP-62; HT-29; Hs-578T; IGROV-1; K562; LOX IMVI; M14; MDA-MB-231; MDA-N; NCI-H23; SF-539; SK-MEL-28; SNB-19; U-251.
Common to all, as to assay: NCI-60 cell line screen, 48 h

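A five-concentration, 48-hour dose response in 96-well plates underlies each endpoint, interpolated linearly between surrounding concentrations. The concentration for 50% growth inhibition is given as GI50.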 Calls of active or inactive are those of the source. No stated cut-off is given here; in the data, active = GI50 up to about 1.1 µM and inactive = higher. A value given as a limit tells only on which side of the number the result lay.

`Clc1ccc(Nc2nnc(CNc3ccc(-c4nnc(Nc5ccc(Cl)cc5)o4)cc3)o2)cc1`: the GI50 in the assay with 786-0 was 8 µM (inactive); in the assay with ACHN, 17.1 µM (inactive); in the assay on BT-549 it was 17.7 µM (inactive); in the assay with CCRF-CEM it was 7.13 µM (inactive); in the assay on HCT-116, 12.2 µM (inactive); with HCT-15, 14.9 µM. Moreover, the GI50 was 18.9 µM (inactive) in the assay with HOP-62; 12.2 µM (inactive) with HT-29; 17.8 µM (inactive) with Hs-578T; 14.1 µM (inactive) in the assay with IGROV-1; 0.504 µM (active) with K562; 6.95 µM (inactive) in the assay with LOX IMVI. Also, the GI50 was 17.1 µM (inactive) in the assay with M14; 7.93 µM (inactive) in the assay with MDA-MB-231; 14.3 µM (inactive) in the assay with MDA-N; 15.9 µM (inactive) in the assay with NCI-H23; 18.6 µM (inactive) with SF-539; 17.2 µM (inactive) in the assay on SK-MEL-28. The GI50 in the assay with SNB-19 is 18.7 µM (inactive); in the assay with U-251 it was 8.71 µM (inactive).
Regarding `CC1(C)CC(Nc2ccc(Nc3ccccc3)cc2)CC(C)(C)N1`, the GI50 in the assay on 786-0 is 21.1 µM (inactive); with ACHN it was 13.5 µM (inactive); in the assay on BT-549, 12.7 µM (inactive); in the assay with CCRF-CEM it was 6.41 µM (inactive); in the assay with HCT-116 it was 35.6 µM (inactive); in the assay on HCT-15, 33.8 µM. In addition, the GI50 is 50.2 µM (inactive) in the assay with HOP-62; 21.3 µM (inactive) in the assay on HT-29; 25.4 µM (inactive) with Hs-578T; 44.1 µM (inactive) in the assay on IGROV-1; 13.2 µM (inactive) in the assay on K562; 24.6 µM (inactive) in the assay on LOX IMVI. Moreover, the GI50 with M14 was 17.7 µM (inactive); in the assay with MDA-MB-231, 14.9 µM (inactive); with MDA-N, 17 µM (inactive); in the assay with NCI-H23, 42.4 µM (inactive); in the assay with SF-539 it was 15.8 µM (inactive); with SK-MEL-28, 18.2 µM (inactive). Moreover, the GI50 was 50.2 µM (inactive) in the assay with SNB-19 and 26.1 µM (inactive) in the assay on U-251.
Take `CCN(CC)C1Oc2cc3c(cc2C(c2cccc(OC)c2OC)C1C)OCO3` (stereo not given): the GI50 with 786-0 was 4.16 µM (inactive); with ACHN it was 3.22 µM (inactive); in the assay with BT-549 it was 3.4 µM (inactive); in the assay on CCRF-CEM, 2.17 µM (inactive); in the assay on HCT-116, 2.79 µM (inactive); in the assay on HCT-15, 3.93 µM. Also, the GI50 with HOP-62 is 10.8 µM (inactive); with HT-29 it was 3.65 µM (inactive); in the assay on Hs-578T, 3.66 µM (inactive); in the assay with IGROV-1, 4.58 µM (inactive); with K562, 3.05 µM (inactive); in the assay on LOX IMVI, 3.66 µM (inactive). The GI50 is 12.1 µM (inactive) in the assay on M14; 13.3 µM (inactive) in the assay on MDA-MB-231; 8.59 µM (inactive) with MDA-N; 8.47 µM (inactive) in the assay with NCI-H23; 10.2 µM (inactive) in the assay with SF-539; 14.9 µM (inactive) in the assay with SK-MEL-28. Besides, the GI50 in the assay on SNB-19 was 8.07 µM (inactive); with U-251, 4.33 µM (inactive).
Turning to `O=C(Nc1nncs1)NS(=O)(=O)n1c(=S)sc2ccccc21`, the GI50 was > 100 µM (inactive) in the assay with 786-0; > 100 µM (inactive) in the assay on ACHN; > 100 µM (inactive) in the assay with BT-549; 24.9 µM (inactive) with CCRF-CEM; > 100 µM (inactive) in the assay with HCT-116; more than 100 µM with HCT-15. Moreover, the GI50 with HOP-62, in the assay on HT-29, in the assay with Hs-578T, in the assay on IGROV-1, in the assay with K562 and with LOX IMVI was > 100 µM (inactive) each time. Also, the GI50 in the assay with M14, in the assay on MDA-MB-231, in the assay on MDA-N, in the assay on NCI-H23, in the assay with SF-539 and in the assay with SK-MEL-28 was > 100 µM (inactive) in each case. For the same molecule, the GI50 in the assay with SNB-19 and in the assay on U-251 was > 100 µM (inactive) in each case.
Take `COC1/C=C\C=C(/C)C(=O)NC2=CC(=O)C(O)=C(CC(C)CC(OC)C(O)C(C)/C=C(\C)C1OC(N)=O)C2=O` (stereo not given): the GI50 was 10.1 µM (inactive) in the assay on 786-0; 2.81 µM (inactive) in the assay on ACHN; 40.5 µM (inactive) in the assay on BT-549; 0.0282 µM (active) in the assay with CCRF-CEM; 0.267 µM (active) with HCT-116; 2.26 µM in the assay on HCT-15. The GI50 with HOP-62 is 13.7 µM (inactive); in the assay with HT-29, 0.0269 µM (active); with Hs-578T, 3.13 µM (inactive); with IGROV-1 it was 0.757 µM (active); with K562, 0.137 µM (active); in the assay on LOX IMVI it was 0.406 µM (active). For the same molecule, the GI50 in the assay on M14 is 0.56 µM (active); with MDA-MB-231, 0.366 µM (active); with MDA-N, 0.0364 µM (active); with NCI-H23, 0.482 µM (active); in the assay with SF-539, 0.984 µM (active); in the assay with SK-MEL-28 it was 0.316 µM (active). Further, the GI50 with SNB-19 is 15.8 µM (inactive); in the assay on U-251 it was 1.03 µM (active).
For the molecule `O=C(CSc1ncccn1)N/N=C/c1ccccc1OCc1ccccc1`, the GI50 with 786-0 was 34.6 µM (inactive); in the assay on ACHN it was 35.2 µM (inactive); in the assay on BT-549, 25 µM (inactive); in the assay with CCRF-CEM, 15.3 µM (inactive); in the assay on HCT-116 it was 23 µM (inactive); in the assay on HCT-15, 17.3 µM. Further, the GI50 in the assay with HOP-62 is 28.2 µM (inactive); in the assay with HT-29, 34.1 µM (inactive); with Hs-578T it was 37.8 µM (inactive); in the assay on IGROV-1, 28.4 µM (inactive); with K562 it was 20.1 µM (inactive); in the assay with LOX IMVI it was 17.4 µM (inactive). Further, the GI50 in the assay with M14 was 29.2 µM (inactive); in the assay on MDA-MB-231, 30.9 µM (inactive); with MDA-N it was 10.8 µM (inactive); in the assay with NCI-H23 it was 32.3 µM (inactive); with SF-539, 20.8 µM (inactive); in the assay with SK-MEL-28 it was 36.6 µM (inactive). The GI50 with SNB-19 was 45.3 µM (inactive); in the assay on U-251, 26.8 µM (inactive).
With `NS(=O)(=O)c1ccc(NC(=O)N/N=C/c2ccccc2O)cc1`, the GI50 in the assay with 786-0 was 73.8 µM (inactive); with ACHN it was > 100 µM (inactive); in the assay with BT-549 it was 43.8 µM (inactive); in the assay with CCRF-CEM, 36.1 µM (inactive); in the assay on HCT-116, 48.2 µM (inactive); in the assay on HCT-15, 48 µM. Besides, the GI50 in the assay on HOP-62 was 50.7 µM (inactive); in the assay with HT-29, 45.5 µM (inactive); in the assay with Hs-578T, 60.5 µM (inactive); in the assay with IGROV-1, 58.7 µM (inactive); in the assay on K562 it was 40.8 µM (inactive); in the assay on LOX IMVI it was 47.4 µM (inactive). Further, the GI50 is 36.8 µM (inactive) with M14; > 100 µM (inactive) in the assay with MDA-MB-231; 22.1 µM (inactive) with MDA-N; 80.7 µM (inactive) in the assay with NCI-H23; 41.9 µM (inactive) in the assay on SF-539; 85.1 µM (inactive) with SK-MEL-28. Also, the GI50 in the assay on SNB-19 was 38.6 µM (inactive); in the assay with U-251, 50.1 µM (inactive).
